This is an account of results in PMC11035696, “Prospective de novo drug design with deep interactome learning” (Nature Communications, 2024).

Where “and” joins values, the source holds several entries; their conditions need not be identical. Identical values can stand only once.

Data set [1] can be described thus: Lipophilicity (LogD pH 7.4). In kind it is physicochemical. How it is done:
(§1) Compounds 1–3 were characterized in a hybrid reporter gene assay for their agoniztic effect on human nuclear receptors PPARα/γ/δ, RXRα, FXRα, RARα in HEK293T cells. Compound 1 was tested in an isothermal titration calorimetry (ITC) assay to measure direct binding affinity to the ligand-binding domain of PPARγ. ADME properties were measured in standardized assays at Roche.
(§2) SI11Absorption Distribution Metabolism and Excretion and Toxicity Data
(§3) To assess the drug-like characteristics of the newly designed PPAR modulators, a series of tests were conducted covering various aspects of absorption, distribution, metabolism, and excretion (ADME) properties. Specifically, these assessments included the parallel artificial membrane permeability assay (PAMPA) with permeation co- […]
(§4) efficients ([…]), LogD measurements, microsomal clearance, hepatocyte clearance, P-glycoprotein (Pgp) efflux ratio and binding and the unbound free fraction. […]
(§5) Table S14: Absorption distribution metabolism and excretion (ADME) properties of compounds 1 and 2. The […]
(§6) values for […], LogD, protein binding, P-glycoprotein (Pgp) efflux ratio and permeability, and hepato-cyte clearance are presented as the mean and standard deviation, with a sample size of N = 3, i.e., 3 technical replicates each. The values for microsomal clearance and CYP-inhibition represent single point measurements. […]

In data set [2] the test system is NICOTINIC RECEPTOR, NEURONAL (α-BGTX insens.). Put plainly: Safety off-target panel, binding. Also on record: species or system Human. The following applies: 10 µM, single point. The source says: Table S9-S12 list all targets, their species, inhibition (%) and assay type for the experiments conducted in the
off-targets. […] The numbers for mean
inhibition (%) represent single point measurements.
off-targets. […] The numbers for
mean inhibition (%) represent single point measurements.

For data set [3], the target named is CYP2C19 (Homo sapiens, UniProt P33261). Put plainly: CYP inhibition dose-response. In kind it is in vitro ADME. To be noted: substrate S-MEPHENYTOIN
Chain of CYP2C19 (P33261 whole entry): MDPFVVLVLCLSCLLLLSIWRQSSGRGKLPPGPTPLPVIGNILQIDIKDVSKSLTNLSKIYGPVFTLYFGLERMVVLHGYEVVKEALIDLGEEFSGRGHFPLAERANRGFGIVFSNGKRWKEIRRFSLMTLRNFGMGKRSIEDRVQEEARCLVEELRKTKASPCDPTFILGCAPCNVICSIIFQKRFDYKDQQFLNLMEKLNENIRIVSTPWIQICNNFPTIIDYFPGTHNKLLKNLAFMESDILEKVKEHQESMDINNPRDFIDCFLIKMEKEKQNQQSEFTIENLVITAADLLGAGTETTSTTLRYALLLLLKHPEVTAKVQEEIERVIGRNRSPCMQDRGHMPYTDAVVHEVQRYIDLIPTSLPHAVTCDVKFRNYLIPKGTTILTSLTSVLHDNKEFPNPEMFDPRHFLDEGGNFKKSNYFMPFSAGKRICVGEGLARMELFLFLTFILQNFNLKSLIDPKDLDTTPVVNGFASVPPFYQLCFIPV
How it is done: as §2, §3
(§7) efficients ([…]), LogD measurements, microsomal clearance, hepatocyte clearance, P-glycoprotein (Pgp) efflux ratio and binding and the unbound free fraction. Furthermore, the evaluation of inhibition po-tential against cytochrome P450 isoenzymes (CYP) proteins was investigated. For seven selected CYP proteins (i.e., Cyp3A4, Cyp1A2, Cyp2B6, Cyp2C9, Cyp2D6, Cyp2C19, and Cyp2C8) the half maximal inhibitory con-centration (IC50) was determined. (Table S15). […]
(§8) activity in the CYP assays was found.
(§9) Table S14: Absorption distribution metabolism and excretion (ADME) properties of compounds 1 and 2. […]
(§10) The values for microsomal clearance and CYP-inhibition represent single point measurements. […]
(§11) Molecule Enzyme Substrate IC50 (µM) […]

Data set [4] concerns the target CYP1A2 (Homo sapiens, UniProt P05177). As to the kind of experiment: CYP inhibition dose-response. In kind it is in vitro ADME. The following applies: substrate PHENACETIN
How it is done: as §2, §3, §7, §8, §9, §10, §11

The target of data set [5] is CYP2B6 (Homo sapiens, UniProt P20813). Put plainly: CYP inhibition dose-response. In kind it is in vitro ADME. The following applies: substrate BUPROPION
Chain of CYP2B6 (P20813 whole entry): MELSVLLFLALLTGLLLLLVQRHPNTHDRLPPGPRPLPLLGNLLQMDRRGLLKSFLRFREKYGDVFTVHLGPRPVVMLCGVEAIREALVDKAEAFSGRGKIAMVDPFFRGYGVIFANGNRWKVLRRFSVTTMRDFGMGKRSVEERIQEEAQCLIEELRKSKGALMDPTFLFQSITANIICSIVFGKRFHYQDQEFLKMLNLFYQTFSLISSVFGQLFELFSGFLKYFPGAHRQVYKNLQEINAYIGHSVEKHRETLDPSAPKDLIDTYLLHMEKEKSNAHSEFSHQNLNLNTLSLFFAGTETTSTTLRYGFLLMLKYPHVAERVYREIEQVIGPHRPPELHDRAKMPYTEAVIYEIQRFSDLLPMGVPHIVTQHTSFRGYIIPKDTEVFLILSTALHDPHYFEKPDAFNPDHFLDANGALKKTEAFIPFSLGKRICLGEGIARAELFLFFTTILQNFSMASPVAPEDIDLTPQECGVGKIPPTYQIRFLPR
How it is done: as §2, §3, §7, §8, §9, §10, §11

The target in data set [6] is T1, liver X receptor (LXR)α (Homo sapiens, UniProt Q13133).
T1 construct: LXRα (pFA-CMV-hLXRα-LBD[104], 1 μM TO901317); expressed in transfected cells; host or cells: HEK293T
T1 sequence (Q13133 209-447 limits assumed): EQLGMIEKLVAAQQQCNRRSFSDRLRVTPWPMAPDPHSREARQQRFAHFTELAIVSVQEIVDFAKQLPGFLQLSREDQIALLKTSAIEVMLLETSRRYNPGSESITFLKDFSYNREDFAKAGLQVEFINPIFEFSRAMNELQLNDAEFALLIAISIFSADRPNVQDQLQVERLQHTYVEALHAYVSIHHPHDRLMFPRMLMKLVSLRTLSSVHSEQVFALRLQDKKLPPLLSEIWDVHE
As to the kind of experiment: Nuclear receptor selectivity profiling, hybrid reporter gene assay, LXRα. In kind it is cell-based. How it is done:
PPAR activation was determined in uniform Gal4-hybrid reporter gene assays for the PPARα, PPARγ and PPARδ isoforms in HEK293T cells (German Collection of Microorganisms and Cell Culture GmbH, DSMZ) which were transiently transfected with pFR-Luc (Stratagene, La Jolla, CA, USA; reporter) and pRL-SV40 (Promega, Madison, WI, USA; internal control) and one pFA-CMV-hPPAR-LBD[97] clone, coding for the hinge region and ligand binding domain of the canonical isoform of human PPARα, PPARγ, PPARδ or respectively. Cells were cultured in Dulbecco’s modified Eagle’s medium (DMEM), high glucose supplemented with 10% fetal calf serum (FCS), sodium pyruvate (1 mM), penicillin (100 U ⋅ ml^-1), and streptomycin (100 μg ⋅ ml^-1) at 37 °C and 5% CO2 and seeded in 96-well plates (3 × 10^4 cells per well). After 24 h, medium was changed to Opti-MEM without supplements and cells were transiently transfected using Lipofectamine LTX reagent (Invitrogen) according to the manufacturer’s protocol. Five hours after transfection, cells were incubated with the test compounds in Opti-MEM supplemented with penicillin (100 U ⋅ ml^-1), streptomycin (100 μg ⋅ ml^-1) and 0.1% DMSO for 16 h before luciferase activity was measured using the Dual-Glo Luciferase Assay System (Promega) according to the manufacturer’s protocol on a Tecan Spark luminometer (Tecan Deutschland GmbH, Germany). Firefly luminescence was divided by Renilla luminescence and multiplied by 1000 resulting in relative light units (RLU) to normalize for transfection efficiency and cell growth. Fold activation was obtained by dividing the mean RLU of a test compound by the mean RLU of the untreated control. All samples were tested in at least three biologically independent experiments in duplicates. For dose-response curve fitting and calculation of EC50 values, the equation “[Agonist] versus response (variable slope—four parameters)” was used in GraphPad Prism (version 7.00, GraphPad Software, La Jolla, CA, USA) with fold activation data. The reference agonizts GW7647 (PPARα)[98],[99], pioglitazone (PPARγ)[100],[101] and L165,041 (PPARδ)[102],[103] were used to validate the assays and to monitor assay performance. Nuclear receptor selectivity profiling was performed with corresponding pFA-CMV-hNR-LBD clones and suitable reference agonizts on RARα (pFA-CMV-hRARα-LBD[104], 1 μM tretinoin), LXRα (pFA-CMV-hLXRα-LBD[104], 1 μM TO901317) and RXRα (pFA-CMV-h RXRα-LBD[105], 1 μM Bexarotene).
In general terms: Reporter assays use an easily measured gene product as a stand-in for the process of interest.

A short description of data set [7]: Parallel artificial membrane permeability assay (PAMPA). In kind it is in vitro ADME. The following applies: PAMPAPEFF permeation coefficient. How it is done:
as §1, §2, §3, §4, §5, §6
(PAMPA measures passive passage across an artificial lipid membrane.)

Chain of CYP1A2 (P05177 whole entry): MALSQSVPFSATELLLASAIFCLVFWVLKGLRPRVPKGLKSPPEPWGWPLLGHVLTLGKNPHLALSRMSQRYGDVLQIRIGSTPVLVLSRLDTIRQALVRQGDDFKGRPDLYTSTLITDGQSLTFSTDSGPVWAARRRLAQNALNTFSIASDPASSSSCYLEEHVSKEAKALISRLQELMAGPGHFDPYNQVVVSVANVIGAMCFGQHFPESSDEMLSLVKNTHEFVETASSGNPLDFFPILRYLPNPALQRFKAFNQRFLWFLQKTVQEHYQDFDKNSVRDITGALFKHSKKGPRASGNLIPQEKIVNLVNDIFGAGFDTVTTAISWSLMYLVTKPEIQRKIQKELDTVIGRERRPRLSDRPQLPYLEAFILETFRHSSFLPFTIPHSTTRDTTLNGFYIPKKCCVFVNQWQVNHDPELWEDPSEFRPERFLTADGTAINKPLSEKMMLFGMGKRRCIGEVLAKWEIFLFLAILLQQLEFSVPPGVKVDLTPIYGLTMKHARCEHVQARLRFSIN

Take `Cc1nnc(-c2ccc(OCCCOc3ccc(CCC(=O)O)c(F)c3)c(F)c2)s1` [Compound 1]: the pH-dependent lipophilicity (logD) in data set [1] was 1.5. Also, the “Mean inhibition (%)” value in data set [2] is -6.9%. Also, the IC50 in data set [3], in data set [4] and in data set [5] was over 20 µM each time. The “LXRα reporter activation, replicate values (DMSO ctrl = 1,000)” value in data set [6] (3 µM) is 1,029 and 1,028 and 1,248; in data set [6] (10 µM) it was 3,397 and 1,447 and 1,490.
Turning to `COc1ccc(Oc2ccc3ncn(CCOc4ccc(CCC(=O)O)cc4)c3c2)cc1` [Compound 2], the pH-dependent lipophilicity (logD) in data set [1] is 1.7. This molecule gave a Papp in data set [7] of 3.9 ×10⁻⁶ cm/s. In addition, the “Mean inhibition (%)” value in data set [2] is reported as -2.9%. Moreover, the IC50 in data set [3], in data set [4] and in data set [5] was over 20 µM each time. Further, the “LXRα reporter activation, replicate values (DMSO ctrl = 1,000)” value in data set [6] (3 µM) was 0,566 and 1,566 and 1,418; in data set [6] (10 µM) it was 1,976 and 2,098 and 2,121.

As usually defined, the logD is lipophilicity at a set pH, counting ionised and neutral species. What is called IC50 is the midpoint of a concentration-inhibition curve. Lower therefore signals greater potency. The term Papp denotes a coefficient for how fast a substance crosses the barrier. A higher Papp goes with fast passage.
